Test results taken from patent EP1311531B1, “STEROID DERIVED ANTIBIOTICS” (Brigham Young University, priority 2000, dated 2002).
Converted amounts (≈) assume the structure as drawn. Read-outs that look alike come from different tables or passages of the source.

Key:
[1] = system: Enterococcus faeculis ATCC 29212; assay: MIC and MBC measurement; assay type: cell-based, Enterococcus faecalis; conditions: ATCC29212
Description: General: Microorganisms. Reference strains were purchased from the American Type Culture Collection (Rockville, MD) or Bactrol disks from Difeo Laboratories (Detroit, MI). […] Bacterial strains were maintained on Mueller-Hinton agar plates, and Candida albicans was maintained on Sabouraud Dextrose agar plates.
Aliquots (20 mL) of the homogeneous solution were then poured in sterile plastic petri dishes (100 x 15 mm, Fisher Scientific). Solutions of compounds were made by dissolving the HCl salt of the respective compound into an appropriate amount of deionized and sterilized water followed by microfiltration.
Aliquots of 1 mL of the suspension were added to test tubes containing 1 mL TSB and incrementally varied concentrations of cholic acid derivatives and/or erythromycin or novobiocin. […] Additionally, an alliquot from each of the samples showing no measurable turbidity was subcultured on TSA plates (alliquots were diluted to provide fewer than 300 CFU). Colonies that grew on the subculture after overnight incubation were counted and the number of CFU/mL in the samples were calculated. The calculated values were compared to the number of CFU/mL in the original inoculum.

[2] = system: Pseudomonas aeruginosa ATCC 27853; assay: Sensitization to erythromycin, novobiocin or rifampicin (permeabilization, FIC); assay type: cell-based
[3] = system: Salmonella typhimurium ATCC 14028; assay: as above; assay type: cell-based
[4] = system: Escherichia coli ATCC 25922; assay: as above
Description: (§2) FICs can be performed by checkerboard titrations of compounds in one dimension of a microtiter plate, and of antibiotics in the other dimension, for example. The FIC is calculated by looking at the impact of one antibiotic on the MIC of the other and vice versa. […] As used herein, FIC can be determined as follows: FIC = (MIC(compound in combination))/(MIC(compound alone)) + (MIC(antibiotic in combination))/(MIC(antibiotic alone)) [formula]
(§3) Concentrations of 0.5, 1.0 or 3.0 µg/mL of these antibiotics were used, and the concentrations of the cholic acid derivatives required to inhibit bacterial growth of Gram-negative strains were determined.

[5] = Minimum hemolytic concentration (MHC); assay type: cell-based; conditions: Table 10
Description: Minimum inhibition concentrations (MIC) and minimum hemolytic concentrations (MHC) were measured as described in Li et al., Antimicrob. Agents. Chemother., 1999, 43, 1347. […]

[6] = system: Candida albicans ATCC 90028; assay: MIC and MBC measurement; assay type: cell-based; conditions: ATCC90028, Table 10
Procedure, shortened: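 MIC taken as absence of turbidity in TSB tubes holding graded compound levels; MBC judged by comparing CFU/mL from TSA subcultures of clear samples against starting inoculum. Test agents were water-dissolved, filtered HCl salts, combined in some tubes with erythromycin or novobiocin.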

[7] = system: Pseudomonas aeruginosa ATCC 27853; assay: MIC and MBC measurement; assay type: cell-based
Procedure, shortened: (§1)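 Tube broth dilution in TSB with stepped concentrations of cholic acid derivatives, alone or with erythromycin or novobiocin. MIC = no measurable turbidity; MBC from overnight TSA subcultures of clear tubes, colony counts converted to CFU/mL versus original inoculum.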

[8] = system: Salmonella typhimurium ATCC 14028; assay: MIC and MBC measurement; assay type: cell-based; conditions: Salmonella enterica
Procedure, shortened: as §1

[9] = system: Klebsiella pneumonia ATCC 13883; assay: MIC and MBC measurement; assay type: cell-based; conditions: Klebsiella pneumoniae, ATCC13883
Procedure, shortened: as §1

[10] = system: Streptococcus pyogenes ATCC 19615; assay: MIC and MBC measurement; assay type: cell-based; conditions: ATCC19615, Table 10
Procedure, shortened: as §1

[11] = system: Klebsiella pneumonia ATCC 13883; assay: Sensitization to erythromycin, novobiocin or rifampicin (permeabilization, FIC); assay type: cell-based, Klebsiella pneumoniae
[12] = system: Escherichia coli ATCC 25922; conditions: ATCC25922
Description: as §2, §3

E. coli (ATCC 10798) = assay: MIC and MBC measurement; assay type: cell-based, Escherichia coli; conditions: ATCC10798; for MBC: read-out: MBC; for MIC: read-out: MIC
Procedure, shortened: as §1

[13] = Table 11, with erythromycin (order of b151)
[14] = ATCC27853, Table 6, P. aureginosa (ATCC 27853)
[15] = ATCC27853, Table 10, Pseudomonas aeruginosa ATCC 27853
[16] = Escherichia coli, Table 1, E. coli (ATCC 10798)
[17] = Table 12, with novobiocin (order of b151)
[18] = Table 13, with rifampicin (order of b151), Escherichia coli ATCC 25922
[19] = Table 13, with rifampicin (order of b151), Klebsiella pneumonia ATCC 13883
[20] = Table 9, Escherichia coli (ATCC 10798)

MIC [1] | MIC [6] | MIC [7, 15] | MIC [8] | MIC [9] | MIC [10] | SMILES | MBC [1] | FIC ([2]; ATCC27853) | concentration required for bacterial growth inhibition ([2]; ATCC27853) | FIC [3, 13] | concentration required for bacterial growth inhibition [3, 13] | MHC [5] | MBC [6] | MBC [7, 15] | MBC [8] | MBC [9] | MBC [10] | FIC ([11]; ATCC13883) | concentration required for bacterial growth inhibition ([11]; ATCC13883) | also measured
2.2 µg/mL (≈ 2.77 µM) | 11 µg/mL (≈ 13.8 µM) | 5.9 µg/mL (≈ 7.42 µM) | 2.2 µg/mL (≈ 2.77 µM) | 3 µg/mL (≈ 3.77 µM) | 2 µg/mL (≈ 2.52 µM) | C[C@H](CCCN(C)Cc1ccccc1)[C@H]1CC[C@H]2[C@@H]3[C@H](OCCCNC(=N)N)C[C@@H]4C[C@H](OCCCNC(=N)N)CC[C@]4(C)[C@H]3C[C@H](OCCCNC(=N)N)[C@]12C [Compound 5] | 16 µg/mL (≈ 20.1 µM) | 0.42 | 2.3 µg/mL | 0.23 | 0.46 µg/mL | 26 µg/mL | 50 µg/mL (≈ 62.9 µM) | 9.9 µg/mL (≈ 12.5 µM) | 3.8 µg/mL (≈ 4.78 µM) | 6.7 µg/mL (≈ 8.43 µM) | 2.1 µg/mL (≈ 2.64 µM) | 0.080 | 0.15 µg/mL | MBC ([2]; Pseudomonas aeruginosa, ATCC27853, Table 7, P. aureginosa (ATCC 27853), with erythromycin): 10 µg/mL; concentration required to lower the MIC of erythromycin from 240 µg/mL to 5 µg/mL ([2]; Table 7, P. aureginosa (ATCC 27853), with erythromycin): 3 µg/mL; concentration required to lower the MIC of novobiocin from >500 µg/mL to 1 µg/mL ([2]; Table 8, P. aureginosa (ATCC 27853), with novobiocin): 6 µg/mL; MBC ([4]; Escherichia coli, ATCC25922): 1.5 µg/mL; concentration required to lower the MIC of erythromycin from 60 µg/mL to 1 µg/mL ([4]; Table 5, E. coli (ATCC 25922), with erythromycin): 1.5 µg/mL; MBC [7, 14]: 15 µg/mL (≈ 18.9 µM); MIC [7, 14]: 6 µg/mL (≈ 7.55 µM); FIC [12]: 0.31; MBC (E. coli (ATCC 10798); [16]): 4 µg/mL (≈ 5.03 µM); MIC (E. coli (ATCC 10798); [16]): 2 µg/mL (≈ 2.52 µM)
12 µg/mL (≈ 24.2 µM) | 75 µg/mL (≈ 151 µM) | 85 µg/mL (≈ 171 µM) | > 100 µg/mL | > 100 µg/mL | 18 µg/mL (≈ 36.3 µM) | C[C@]12CC[C@@H](OCCCN)C[C@H]1C[C@@H](OCCCN)[C@@H]1[C@@H]2C[C@H](OCCCN)[C@]2(C)[C@@H](O)CC[C@@H]12 [Compound 106] | > 100 µg/mL | 0.22 | 16 µg/mL | 0.088 | 7.1 µg/mL | >100 µg/mL | 92 µg/mL (≈ 186 µM) | 97 µg/mL (≈ 196 µM) | > 100 µg/mL | 100 µg/mL (≈ 202 µM) | 37 µg/mL (≈ 74.6 µM) | 0.66 | 3.6 µg/mL | concentration required for bacterial growth inhibition ([2]; Table 12, with novobiocin (order of b151), Pseudomonas aeruginosa ATCC 27853): 30 µg/mL; FIC ([2]; Table 13, with rifampicin (order of b151), Pseudomonas aeruginosa ATCC 27853^b (footnote b not given)): 0.17; FIC [3, 17]: 0.094; concentration required for bacterial growth inhibition [3, 17]: 8.4 µg/mL; FIC [4, 18]: 0.12; concentration required for bacterial growth inhibition [4, 18]: 4.2 µg/mL; concentration required for bacterial growth inhibition ([11]; Table 12, with novobiocin (order of b151), Klebsiella pneumonia ATCC 13883): 8.9 µg/mL; FIC [11, 19]: 0.044; concentration required for bacterial growth inhibition [11, 19]: 1.8 µg/mL; concentration required for bacterial growth inhibition [12]: 4.7 µg/mL; MBC (E. coli (ATCC 10798); [20]): > 200 µg/mL; MIC (E. coli (ATCC 10798); [20]): 140 µg/mL (≈ 282 µM)
